Data as given in PubChem BioAssay (NCI).
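How tested: cells in 96-well plates exposed to compound for 48 hours at five concentrations. Abbreviation: GI50, concentration required for 50% inhibition of growth. TGI marks complete inhibition of growth.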

Experiments:
Test in all cases: NCI anticancer screen, dose series, 48 h
[1] = test system: HCC-2998 colon
[2] = test system: HCT-15 colon
[3] = test system: M14 melanoma
[4] = test system: NCI-H460 lung
[5] = test system: SF-295 CNS
[6] = test system: SK-MEL-28 melanoma
[7] = test system: SNB-19 CNS
[8] = test system: SNB-75 CNS
[9] = test system: TK-10 renal
[10] = test system: UO-31 renal

Row | Compound | GI50 [1] | TGI [1] | GI50 [2] | TGI [2] | GI50 [3] | TGI [3] | GI50 [4] | TGI [4] | GI50 [5] | TGI [5] | GI50 [6] | TGI [6] | GI50 [7] | TGI [7] | GI50 [8] | TGI [8] | GI50 [9] | TGI [9] | GI50 [10] | TGI [10]
1 | CC1=C(C(=O)Nc2ccc(F)c(Cl)c2)C(c2ccc(Cl)cc2)NC(=O)N1 (stereo not given) | 14.6 µM | 27.7 µM | 19.5 µM | 41.1 µM | 16.5 µM | 33.6 µM | 17.5 µM | 37.3 µM | 32.5 µM | > 100 µM | 16.5 µM | 32.6 µM | 33.1 µM | > 100 µM | 5.28 µM | 30.5 µM | 7.4 µM | 25.4 µM | 15.1 µM | 30.1 µM
2 | O=C(N/C(=C\c1cc(Cl)ccc1Cl)c1nc2[nH]c(=S)[nH]c(=O)c2[nH]1)c1ccccc1 | – | 30.7 µM | – | > 51 µM | – | > 56.5 µM | – | > 100 µM | – | > 100 µM | – | > 83.5 µM | – | > 100 µM | – | > 100 µM | – | > 100 µM | – | > 76.4 µM
3 | CSc1ccc(/C=C2\CN(C)C/C(=C\c3ccc(SC)cc3)C2=O)cc1 | – | > 100 µM | – | > 100 µM | – | > 100 µM | – | > 100 µM | – | > 100 µM | – | > 100 µM | – | – | – | 38.2 µM | – | > 100 µM | – | > 100 µM
4 | CCc1ccc2c(c1)C(=O)c1c-2n(CCCBr)c(=O)c2cc([N+](=O)[O-])ccc12 | > 50 µM | > 50 µM | > 50 µM | > 50 µM | > 50 µM | > 50 µM | > 50 µM | > 50 µM | 36.5 µM | > 50 µM | > 50 µM | > 50 µM | 30.8 µM | > 50 µM | 7.88 µM | 19.9 µM | 15 µM | > 50 µM | > 50 µM | > 50 µM
5 | CC(C)c1ccc(C(C)C(=O)N(CC2=C(C(C)c3ccccn3)c3ccccc3C2)C(C)C)cc1 (stereo not given) | 4.52 µM | 39.1 µM | 2.84 µM | 18 µM | 3.93 µM | 15.6 µM | 2.62 µM | 8.35 µM | 2.3 µM | 7.65 µM | 10.8 µM | 66.2 µM | 6.66 µM | > 100 µM | 3.17 µM | > 100 µM | 4.81 µM | > 100 µM | 1.53 µM | 7.29 µM
6 | CCOC(=O)c1ncn2c1[nH]c(=S)c1ccccc12 | – | > 100 µM | – | > 100 µM | – | > 100 µM | – | > 100 µM | – | > 100 µM | – | > 100 µM | – | > 100 µM | – | > 100 µM | – | > 100 µM | – | > 100 µM
7 | CSCCCN(CCCSC)CCCSC | – | > 100 µM | – | > 100 µM | – | > 100 µM | – | > 100 µM | – | > 100 µM | – | > 100 µM | – | > 100 µM | – | > 100 µM | – | – | – | > 100 µM
8 | Clc1cccc(Cc2cn3cc(-c4ccccc4)nc3s2)c1Cl | 59.5 µM | > 100 µM | > 100 µM | > 100 µM | > 100 µM | > 100 µM | > 100 µM | > 100 µM | – | – | 54.4 µM | > 100 µM | 24.4 µM | > 100 µM | – | – | 26.1 µM | > 100 µM | > 100 µM | > 100 µM
9 | Fc1ccc(Nc2ncnc3ccc(-c4cnc5[nH]ccc5c4)cc23)cc1Cl | 4.87 µM | > 100 µM | 3.24 µM | > 76.5 µM | 4.35 µM | > 100 µM | 1.83 µM | 4.06 µM | 2.73 µM | 11.2 µM | 4.13 µM | > 36.2 µM | 1.94 µM | 5.94 µM | 1.23 µM | 3.42 µM | 0.292 µM | 13.8 µM | 0.6 µM | 2.38 µM
10 | O=C(NCCNc1nccc(-c2c(-c3cccc(O)c3)nc3sccn23)n1)c1ccccc1O | 5.67 µM | 22.5 µM | 4.53 µM | > 46.8 µM | 0.342 µM | 13.6 µM | 4.16 µM | 19.6 µM | 4.18 µM | 26.6 µM | 0.43 µM | 33.3 µM | 12.6 µM | > 78.7 µM | 2.29 µM | 19.6 µM | 6.17 µM | 30.3 µM | 5 µM | 19.8 µM
11 | CC1=C(C#N)C23C(=O)c4ccccc4C(O)=C2C(=O)C=CC3(O)N1Cc1ccccc1 (stereo not given) | > 100 µM | > 100 µM | 15 µM | > 100 µM | 32.8 µM | > 100 µM | 30.3 µM | > 100 µM | 17.6 µM | > 100 µM | 57.1 µM | > 100 µM | 40.1 µM | > 100 µM | 36.6 µM | > 100 µM | 36.9 µM | > 100 µM | 18 µM | > 100 µM
12 | O=C(CN1CCN(c2cc3c(cc2F)c(=O)c(C(=O)N/N=C/c2ccccc2O)cn3C2CC2)CC1)N/N=C\c1ccccc1O | 0.615 µM | > 100 µM | 0.33 µM | > 100 µM | 0.384 µM | 5.02 µM | 0.367 µM | > 48.7 µM | 0.931 µM | > 100 µM | 0.657 µM | > 100 µM | 1.18 µM | > 100 µM | 1.11 µM | > 100 µM | 0.77 µM | > 100 µM | 0.359 µM | > 100 µM
13 | N#CC(C#N)=c1ccc(=C2NCC3CCCN23)cc1 (stereo not given) | – | > 100 µM | – | > 100 µM | – | > 100 µM | – | > 100 µM | – | > 100 µM | – | – | – | > 100 µM | – | > 100 µM | – | > 100 µM | – | > 100 µM
14 | COC(=O)[C@@]12C3=NO[C@]1(C(=O)OC)C(O[Si](C)(C)C(C)(C)C)[C@H]1OC(C)(C)O[C@H]1[C@@H]2C(OCc1ccccc1)CC3 (stereo not given in full) | – | > 100 µM | – | > 100 µM | – | > 100 µM | – | 23.7 µM | – | > 100 µM | – | > 100 µM | – | 99.8 µM | – | 58 µM | – | > 100 µM | – | > 100 µM
15 | O=[S@@]1Nc2ccc(Br)cc2S1 | – | – | – | – | – | > 100 µM | – | – | – | > 100 µM | – | > 100 µM | – | 39.3 µM | – | > 100 µM | – | > 100 µM | – | 7.43 µM
